For this experiment, the target named is T1, human α1β2δ GABAΑ receptor (Homo sapiens, UniProt P14867+P47870).
T1 construct: expressed in transfected cells; host or cells: δ-HEK (HEK293 Flp-In stably expressing human δ), transiently transfected with α and β 1:1
T1 sequence (P14867 28-456): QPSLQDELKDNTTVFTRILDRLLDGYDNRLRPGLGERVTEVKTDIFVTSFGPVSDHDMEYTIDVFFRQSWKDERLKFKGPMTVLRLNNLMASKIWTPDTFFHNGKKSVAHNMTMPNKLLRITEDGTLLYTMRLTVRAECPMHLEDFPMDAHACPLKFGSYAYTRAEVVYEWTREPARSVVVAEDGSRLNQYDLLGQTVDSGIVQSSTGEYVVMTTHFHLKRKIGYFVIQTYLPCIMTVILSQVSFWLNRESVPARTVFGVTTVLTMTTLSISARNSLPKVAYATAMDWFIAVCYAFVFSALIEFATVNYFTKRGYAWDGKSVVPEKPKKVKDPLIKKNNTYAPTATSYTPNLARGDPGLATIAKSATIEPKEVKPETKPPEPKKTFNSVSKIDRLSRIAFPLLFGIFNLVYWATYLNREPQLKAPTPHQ
T1 sequence (P47870 25-512 limits assumed): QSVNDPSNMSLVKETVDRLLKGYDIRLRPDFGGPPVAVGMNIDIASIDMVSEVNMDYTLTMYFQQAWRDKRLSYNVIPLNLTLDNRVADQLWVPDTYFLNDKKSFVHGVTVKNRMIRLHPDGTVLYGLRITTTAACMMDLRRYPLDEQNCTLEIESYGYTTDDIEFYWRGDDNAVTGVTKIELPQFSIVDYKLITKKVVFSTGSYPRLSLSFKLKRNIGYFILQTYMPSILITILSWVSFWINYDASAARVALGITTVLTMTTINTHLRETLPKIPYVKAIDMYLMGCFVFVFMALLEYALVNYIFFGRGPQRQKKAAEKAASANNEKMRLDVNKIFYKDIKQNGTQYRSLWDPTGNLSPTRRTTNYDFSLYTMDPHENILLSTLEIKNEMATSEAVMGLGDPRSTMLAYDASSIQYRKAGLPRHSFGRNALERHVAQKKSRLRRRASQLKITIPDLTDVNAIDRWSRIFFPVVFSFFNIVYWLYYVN
T1 sequence (O14764 25-452 partner): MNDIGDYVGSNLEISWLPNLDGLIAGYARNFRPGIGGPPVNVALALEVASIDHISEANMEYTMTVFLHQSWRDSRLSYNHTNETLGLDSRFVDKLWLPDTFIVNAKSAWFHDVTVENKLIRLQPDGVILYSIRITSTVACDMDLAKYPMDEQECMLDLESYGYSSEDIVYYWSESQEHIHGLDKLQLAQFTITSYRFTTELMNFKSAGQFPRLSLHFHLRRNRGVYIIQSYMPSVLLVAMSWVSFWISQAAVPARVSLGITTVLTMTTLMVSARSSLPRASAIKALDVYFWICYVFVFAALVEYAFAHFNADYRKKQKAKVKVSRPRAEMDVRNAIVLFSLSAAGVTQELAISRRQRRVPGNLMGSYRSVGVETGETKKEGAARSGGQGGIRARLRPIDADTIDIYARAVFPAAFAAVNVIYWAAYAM
Kind of experiment: FMP assay at α1β2δ GABAA receptors in HEK cells. In kind it is cell-based. The method, then:
HEK293 cells were maintained in DMEM containing GlutaMAX-I, supplemented with 10% FBS and 1% penicillin-streptomycin and incubated at 37 °C and a humidity of 5% CO2. For expression of δ-containing GABAΑ receptors, a HEK293 Flp-In^ΤΜ cell line stably expressing the human GABAΑ δ-subunits (referred to as δ-HEK) was used and the γ-containing subtypes was expressed in a background HEK293 Flp-In^ΤΜ cell line stably expressing the G-protein coupled peptide receptor NPBWR2 (referred to as HEK background)[26], both positively selected for using 200 μg/mL hygromycin B. α1β2γ2 receptors were stably expressed in a HEK293 cell line maintained as above but with no selection (gift from Marianne L. Jensen, Neurosearch).
To express recombinant GABAΑ receptors human α1, α2, α3, α5, α6, β2, γ2 (pcDNA3.1/Zeo) and α4, β1 (pUNIV)[26] subunit cDNA were transiently transfected into either δ-HEK or HEK background cells. δ-HEK cells were transfected with α- and β-subunits in a 1:1 ration whereas HEK background cells were transfected with α-, β- and γ-subunits in a 1:1:2 ratio. Human BGT1 (pcDNA5/FRT)[43] was transiently transfected into the δ-HEK cell line. δ-HEK cells transfected for whole-cell patch-clamp recordings were co-transfected with green fluorescent protein (GFP) as well as α- and β-subunits in a 0.5:1:1 ratio (0.8 μg + 1.6 μg + 1.6 μg in a 6 cm dish) in order to identify transfected cells. The transfection was carried out using Polyfect as transfection reagent according to the manufactures protocol expect for using half the recommended volume of Polyfect.
The FMP assay was performed as previously described with a few modifications. Briefly, HEK cells were transfected as described[26] and 16–20 hours later plated (50,000 cells/well in DMEM medium) into clear-bottomed black 96-well plates coated with poly-D-lysine and the assay performed 20–28 hours later. The assay protocol including the FMP blue dye incorporation into membranes was exactly as described in Falk-Petersen et al.[26]. […] Data was obtained as changes in fluorescence units (∆RFU) by measuring emission at 560 nm caused by excitation at 530 nm. Unless otherwise mentioned in the text or figure legends experiments were performed in at least three independent experiments each using three technical replicates. Due to an observed edge effect for the FMP assay, outer wells were not used except for the screening.
Data obtained in the FMP assay are given as relative changes in fluorescence units (ΔRFU) by subtracting the average of the baseline fluorescence signal from the peak fluorescence signal after compound addition. All raw traces were inspected manually and peak signals resulting from compound/buffer addition together with signal artefacts were omitted from the analysis.
The concentration-response curves obtained in the FMP assay for both agonists (determining EC50 values) and antagonists (determining IC50 values) were fitted using the four-parameter concentration-response model: Response=bottom+top−bottom/1+10^[(logEC50-A)⋅nH] EC/IC50 values describe the concentration resulting in the half-maximal response (halfway between top and bottom), and nΗ is the Hill coefficient. […] Gaddum Schild analysis was performed using GraphPad Prism version 8.2.1 (GraphPad Software Inc., San Diego, CA, USA). EC50/IC50 values obtained in the FMP assay are given as means ± SEM from at least three independent experiments with three technical replicates, as specified in the individual figure legends.

[1] abbreviates: antagonist activity vs GABA EC80 10–14 μM, mean, read-out: IC50.
[2] abbreviates: vs GABA EC80, read-out: pIC50 ± SEM (converted).

Where two headings read alike, the source gives them in different places.

With `NCCCC(=O)O` [GABA], under “calculated from GABA potencies, used in antagonist tests”, the “GABA EC80” value is 10 to 14 µM.

For the compound `O=C(Nc1cccc(C(=O)N2CCC3(CCNCC3)CC2)c1)c1cccs1` [compound 018, N-(3-(3,9-diazaspiro[5.5]undecane-3-carbonyl)phenyl)thiophene-2-carboxamide], the IC50 reads like this: under setting [1], 0.24 µM; under setting [2], 0.245 µM.

Consider `CC(=O)Nc1cccc(C(=O)N2CCC3(CCNCC3)CC2)c1` [compound 2027, N-(3-(3,9-diazaspiro[5.5]undecane-3-carbonyl)phenyl)acetamide], for which the “potency reduction of 2027 compared to 018” value worked out at 28 times. Moreover, under setting [1], the IC50 was 6.68 µM. Moreover, the IC50 under setting [2] was 6.76 µM.
